Marks after values point to notes of the source that are not given here.
Legend:
[1] = Oral exposure in mice; assay type: in vivo, mouse; settings: for Plasma drug concentration (mean ± SD): mice, 10 mg/kg oral gavage
[2] = target: T1, AR protein (Homo sapiens, UniProt P10275); test: AR protein degradation in VCaP cells, Western blotting; assay type: cell-based; settings: VCaP and LNCaP cell lines
T1 sequence (P10275 1-920): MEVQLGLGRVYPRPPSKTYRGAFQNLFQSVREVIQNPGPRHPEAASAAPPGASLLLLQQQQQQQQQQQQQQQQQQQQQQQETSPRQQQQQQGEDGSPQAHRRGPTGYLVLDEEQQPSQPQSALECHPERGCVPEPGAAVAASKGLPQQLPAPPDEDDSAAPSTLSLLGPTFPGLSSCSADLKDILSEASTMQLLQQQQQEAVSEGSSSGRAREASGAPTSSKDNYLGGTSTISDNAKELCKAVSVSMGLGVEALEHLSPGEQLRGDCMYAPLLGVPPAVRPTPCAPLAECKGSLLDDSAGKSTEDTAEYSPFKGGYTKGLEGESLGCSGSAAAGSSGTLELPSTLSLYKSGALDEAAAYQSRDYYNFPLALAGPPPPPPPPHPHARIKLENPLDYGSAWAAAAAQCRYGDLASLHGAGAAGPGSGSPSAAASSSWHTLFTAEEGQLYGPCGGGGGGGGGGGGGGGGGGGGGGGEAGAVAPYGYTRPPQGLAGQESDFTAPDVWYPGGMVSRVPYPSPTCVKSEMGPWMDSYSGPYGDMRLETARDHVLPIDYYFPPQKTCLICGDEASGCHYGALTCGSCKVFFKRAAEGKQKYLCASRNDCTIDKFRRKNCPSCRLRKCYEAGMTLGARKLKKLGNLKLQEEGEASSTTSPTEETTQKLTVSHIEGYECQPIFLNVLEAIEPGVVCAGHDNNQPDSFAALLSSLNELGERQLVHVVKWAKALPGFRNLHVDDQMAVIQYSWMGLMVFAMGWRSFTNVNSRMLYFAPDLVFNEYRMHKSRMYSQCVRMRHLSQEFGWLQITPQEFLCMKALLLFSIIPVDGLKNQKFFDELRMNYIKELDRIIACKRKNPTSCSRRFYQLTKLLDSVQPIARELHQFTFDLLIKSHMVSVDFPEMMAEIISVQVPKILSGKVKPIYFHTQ

[3] = PK study in mouse; assay type: in vivo; settings: male, ICR, plasma, po, 5 mg/kg
[4] = test system: VCaP xenograft tumor; test: Antitumor activity in VCaP xenograft tumor model in SCID mice; assay type: in vivo, mouse; settings: all doses tested (3.75-25 mg/kg), entire experiment
[5] = test system: KLK3 (PSA) gene; test: Suppression of KLK3; assay type: cell-based, human
[6] = PK study in dog; assay type: in vivo; settings: male, beagle, plasma, po, 1 mg/kg
[7] = PK study in rat; assay type: in vivo; settings: male, Sprague-Dawley, plasma, po, 10 mg/kg
[8] = target: T2, AR-LBD protein (Rattus norvegicus, UniProt P15207); test: AR fluorescence-polarization; assay type: binding
T2 sequence (P15207 651-882 limits assumed): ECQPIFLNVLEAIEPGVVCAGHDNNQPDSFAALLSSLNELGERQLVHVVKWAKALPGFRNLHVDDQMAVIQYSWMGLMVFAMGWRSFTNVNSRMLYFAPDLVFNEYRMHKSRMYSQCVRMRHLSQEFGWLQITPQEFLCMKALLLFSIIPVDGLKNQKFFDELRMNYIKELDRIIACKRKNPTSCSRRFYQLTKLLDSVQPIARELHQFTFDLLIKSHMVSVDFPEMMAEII

[9] = target: T1, AR protein; test: Multiplexed quantitative proteomics analysis in VCaP cells; assay type: cell-based; settings: 10 μM, 24 h
[10] = male, SCID, mouse, plasma, po, 10 mg/kg

## 2-chloro-4-(8-(4-(4-(4-(2-(2,6-dioxopiperidin-3-yl)-1,3-dioxoisoindolin-5-yl)piperazin-1-yl)piperidin-1-yl)benzoyl)-2,8-diazaspiro[4.5]decan-2-yl)benzonitrile [Compound 20]
[1]; 1 h
  Plasma drug concentration (mean ± SD): 82^b ng/ml
[1]; 3 h
  Plasma drug concentration (mean ± SD): 57^b ng/ml
[1]; 6 h
  Plasma drug concentration (mean ± SD): 91^b ng/ml
[1]; 24 h
  Plasma drug concentration (mean ± SD): 3^b ng/ml

## C[C@H]1CC2(CCN(c3ccc(C(=O)N4CCN(C5CN(c6ccc7c(c6)C(=O)N(C6CCC(=O)NC6=O)C7=O)C5)CC4)cc3)CC2)CN1c1ccc(C#N)c(Cl)c1 (stereo partly drawn) [Compound 30, 2-chloro-4-((3S)-8-(4-(4-(1-(2-(2,6-dioxopiperidin-3-yl)-1,3-dioxoisoindolin-5-yl)azetidin-3-yl)piperazine-1-carbonyl)phenyl)-3-methyl-2,8-diazaspiro[4.5]decan-2-yl)benzonitrile]
[2]
  times more potent than ARV-110 in inducing AR degradation: 6-9
[3]
  AUC(0-t): 11700 ng·h/mL
  Cmax: 1480 ng/mL
[4]
  signs of toxicity: no signs of toxicity
[5]; VCaP and LNCaP cell lines
  times more potent than Enzalutamide in suppressing KLK3 gene expression: at least 30
[5]; VCaP, 1 nM, 24 h
  suppression of expression of KLK3 gene: 51%
[6]
  AUC: 1820 ng·h/mL
[7]
  AUC(0-t): 12800 ng·h/mL
  Cmax: 1470 ng/mL

## N#Cc1ccc(N2CCC3(CCN(c4ccc(C(=O)N5CCN(C6CN(c7ccc8c(c7)C(=O)N(C7CCC(=O)NC7=O)C8=O)C6)CC5)cc4)CC3)C2)cc1Cl (stereo not drawn) [Compound 27, 2-chloro-4-(8-(4-(4-(1-(2-(2,6-dioxopiperidin-3-yl)-1,3-dioxoisoindolin-5-yl)azetidin-3-yl)piperazine-1-carbonyl)phenyl)-2,8-diazaspiro[4.5]decan-2-yl)benzonitrile]
[1]; [10]
  concentration at 1 h: 501 ng/mL
  concentration at 3 h: 171 ng/mL
  concentration at 6 h: 246 ng/mL
  concentration at 24 h: 44 ng/mL
[1]; 1 h, 10 mg/kg
  Plasma drug concentration (mean ± SD): 501 ± 106 ng/mL
[1]; 3 h, 10 mg/kg
  Plasma drug concentration (mean ± SD): 171 ± 83 ng/mL
[1]; 6 h, 10 mg/kg
  Plasma drug concentration (mean ± SD): 246 ± 27 ng/mL
[1]; 24 h, 10 mg/kg
  Plasma drug concentration (mean ± SD): 44 ± 5 ng/mL

## N#Cc1ccc(N2CCC3(CCN(c4ccccc4)CC3)C2)cc1Cl [Compound 15a]
[8]
  IC50: > 1 µM

## CN1CCN(c2ccc(C(=O)N3CCC4(CC3)CCN(c3ccc(C#N)c(Cl)c3)C4)cc2)CC1 [Compound 14b]
[8]; vs 14a
  times more potent than 14a in AR binding: 2

## C[C@H]1CC2(CCN(c3ccc(C(=O)N4CCN(C)CC4)cc3)CC2)CN1c1ccc(C#N)c(Cl)c1 [ARi-12, (S)-2-chloro-4-(3-methyl-8-(4-(4-methylpiperazine-1-carbonyl)phenyl)-2,8-diazaspiro[4.5]decan-2-yl)benzonitrile]
[9]
  effect on protein levels (proteomics): did not significantly alter the levels of any proteins analyzed

## N#Cc1ccc(N2CCC3(CCN(c4ccc(C(=O)N5CCCN(C6CCN(c7ccc8c(c7)C(=O)N(C7CCC(=O)NC7=O)C8=O)CC6)CC5)cc4)CC3)C2)cc1Cl (stereo not drawn) [Compound 21, 2-chloro-4-(8-(4-(4-(1-(2-(2,6-dioxopiperidin-3-yl)-1,3-dioxoisoindolin-5-yl)piperidin-4-yl)-1,4-diazepane-1-carbonyl)phenyl)-2,8-diazaspiro[4.5]decan-2-yl)benzonitrile]
[1]; [10]
  concentration at 1 h: 46 ± 16 ng/mL
  concentration at 3 h: 8 ± 1 ng/mL
  concentration at 6 h: 11 ± 3 ng/mL
